From the supplement of paper PMC11061612

Experiments:
Test in all cases: combination Emax (second highest fraction inhibited in the dose matrix, 72 h); higher = more inhibition; extreme values may be limits of the assay
[1] = test system: PEO1 (Ovarian Carcinoma)
Summary of the method: (§1)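 Bliss excess equals the observed combination effect minus the expected value EA + EB − EA·EB, where EA and EB are the effects of each agent alone. Combination Emax is the second-highest inhibition within the matrix. Inhibition was scaled from CellTiter-Glo 2.0 luminescence, with 0 set by vehicle wells and 1 by blank wells, after 72 hours of two-drug dosing of cells plated in 1536-well plates.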

[2] = test system: JIMT-1 (Breast Carcinoma)
Summary of the method: as §1

[3] = test system: NCI-H716 (Colorectal Carcinoma)
Summary of the method: as §1

[4] = test system: CGTH-W-1 (Thyroid Gland Carcinoma)
Summary of the method: as §1

[5] = test system: COLO-792 (Melanoma)
Summary of the method: as §1

[6] = test system: EB2 (Burkitt's Lymphoma)
Summary of the method: as §1

[7] = test system: HCC1428 (Breast Carcinoma)
Summary of the method: as §1

[8] = test system: NCI-H2228 (Lung Adenocarcinoma)
Summary of the method: as §1

[9] = test system: NB13 (Neuroblastoma)
Summary of the method: as §1

[10] = test system: A101D (Melanoma)
Summary of the method: as §1

[11] = test system: GA-10 (Burkitt's Lymphoma)
Summary of the method: as §1

[12] = test system: EW-7 (Ewing's Sarcoma)
Summary of the method: as §1

[13] = test system: Jurkat (T-Lymphoblastic Leukemia)
Summary of the method: as §1

[14] = test system: WM1552C (Melanoma)
Summary of the method: as §1

[15] = test system: UACC-812 (Breast Carcinoma)
Summary of the method: as §1

[16] = test system: KYSE-140 (Esophageal Squamous Cell Carcinoma)
Summary of the method: as §1

[17] = test system: MDA-MB-436 (Breast Carcinoma)
Summary of the method: as §1

[18] = test system: JHU-022 (Oral Cavity Carcinoma)
Summary of the method: as §1

[19] = test system: KP-N-YN (Neuroblastoma)
Summary of the method: as §1

[20] = test system: OACp4C (Esophageal Adenocarcinoma)
Summary of the method: as §1

| SMILES | combination Emax [1] | combination Emax [2] | combination Emax [3] | combination Emax [4] | combination Emax [5] | combination Emax [6] | combination Emax [7] | combination Emax [8] | combination Emax [9] | combination Emax [10] | combination Emax [11] | combination Emax [12] | combination Emax [13] | combination Emax [14] | combination Emax [15] | combination Emax [16] | combination Emax [17] | combination Emax [18] | combination Emax [19] | combination Emax [20] |
| --- | --- | --- | --- | --- | --- | --- | --- | --- | --- | --- | --- | --- | --- | --- | --- | --- | --- | --- | --- | --- |
| COc1nnc2ccc(N3CCC(c4ccc(OCCN5CCN(C)C(=O)[C@H]5C)cc4)CC3)nn12 [AZD5153] + CCN(CCO)CCCOc1ccc2c(Nc3cc(CC(=O)Nc4cccc(F)c4)[nH]n3)ncnc2c1 [AZD2811] (first compound max 1 µM, 7x7, partner max 1 µM) | 0.435 | 0.382 | 0.529 | 0.308 | 0.563 | 0.589 | 0.701 | 0.348 | 0.65 | 0.693 | 0.74 | 0.444 | 0.745 | 0.444 | 0.298 | 0.626 | 0.287 | 0.452 | 0.616 | 0.683 |
| COc1nnc2ccc(N3CCC(c4ccc(OCCN5CCN(C)C(=O)[C@H]5C)cc4)CC3)nn12 [AZD5153] + C[C@@H]1COCCN1C2=NC(=NC(=C2)C3(CC3)[S@](=N)(=O)C)C4=C5C=CNC5=NC=C4 [AZD6738] (first compound max 1 µM, 7x7, partner max 10 µM) | 0.748 | 0.77 | 0.702 | 0.448 | 0.72 | 0.764 | 0.732 | 0.594 | 0.917 | 0.805 | 0.962 | 0.961 | 0.985 | 0.546 | 0.479 | 0.821 | 0.332 | 0.563 | 0.955 | 0.856 |
| COc1nnc2ccc(N3CCC(c4ccc(OCCN5CCN(C)C(=O)[C@H]5C)cc4)CC3)nn12 [AZD5153] + Cc1c2c(nn1C)CSCc1cc(n(C)n1)CSc1cc(c3ccccc3c1)OCCCc1c(C(=O)O)n(C)c3c-2c(Cl)ccc13 [AZD5991] (first compound max 1 µM, 7x7, partner max 1 µM) | 0.432 | 0.611 | 0.817 | 0.428 | 1 | 0.608 | 0.984 | 0.372 | 0.907 | 0.924 | 0.967 | 0.759 | 1 | 0.888 | 0.8 | 0.603 | 0.293 | 0.417 | 0.449 | 0.789 |
